From patent US12304899B2, “Factor XI activation inhibitors” (Merck Sharp & Dohme LLC, priority 2019, dated 2025) come the findings set out here.

The experiment deals with T1, Human coagulation factor (F)XI (Homo sapiens, UniProt P03951).
T1 construct: purchased Haematologic Technologies Inc. (FXI); Enzyme Research Laboratories (FXIIa) HCXI-150 (FXI); HFXIIa (FXIIa)
The experiment can be described thus: Inhibition of FXIIa mediated activation of FXI (activation of human Factor XI to XIa by human Factor α-XIIa). It counts as biochemical. The note with it: human FXI pre-incubated with compound 30 min at 22° C., activation by human FXIIa 60 min, z-GPR-AFC substrate fluorescence, 4 parameter logistic fit; read-out: Inhibition of FXIIa meditated activation of FXI. As to the method:
Inhibition of FXIIa Mediated Activation of FXI
Activation of Human Factor XI to XIa by Human Factor α-XIIa
The assay was performed in 50 mM HEPES, 150 mM NaCl, 5 mM CaCl2, 0.1% PEG-8000, pH 7.4 buffer in black, flat-bottom, polystyrene microplates (Corning, Cat #3573). Serial dilutions (10-point, 3.333-fold) of the test compounds delivered as 10 mM DMSO stocks were prepared in the Labcyte Echo-qualified PP 384 well microplates (Labcyte, Cat #P-05525). Human coagulation factor (F)XI (Haematologic Technologies Inc., Cat #HCXI-150, concentration 46 nM, 19.5 uL) was pre-incubated with 0.5 uL of the test compounds for 30 min at 22° C. The activation was initiated by addition of 10 uL of human coagulation factor (F)XIIa (Enzyme Research Laboratories, Cat #HFXIIa, concentration 30 nM) and the reaction proceeded for 60 min at 22° C., after which it was quenched by addition of a selective inhibitor of FXIIa (Compound 54 in International Patent Publication WO2018093695) concentration 600 uM in DMSO, 1 uL). 10 min after the quench, 29 uL of z-GPR-AFC substrate (Sigma, Cat #C0980-10 MG, concentration 200 uM) was added into each well and the detection reaction proceeded for 60 min at 22° C. Fluorescence at 405/510 nm was measured in end-point mode using an Envision plate-reader (Perkin Elmer). IDBS Activity Base XE (ABase) analysis using 4 parameter logistic fit was performed to determine Minimum, Maximum, EC50, and Slope Factor for each compound.

T1 sequence (P03951 19-625): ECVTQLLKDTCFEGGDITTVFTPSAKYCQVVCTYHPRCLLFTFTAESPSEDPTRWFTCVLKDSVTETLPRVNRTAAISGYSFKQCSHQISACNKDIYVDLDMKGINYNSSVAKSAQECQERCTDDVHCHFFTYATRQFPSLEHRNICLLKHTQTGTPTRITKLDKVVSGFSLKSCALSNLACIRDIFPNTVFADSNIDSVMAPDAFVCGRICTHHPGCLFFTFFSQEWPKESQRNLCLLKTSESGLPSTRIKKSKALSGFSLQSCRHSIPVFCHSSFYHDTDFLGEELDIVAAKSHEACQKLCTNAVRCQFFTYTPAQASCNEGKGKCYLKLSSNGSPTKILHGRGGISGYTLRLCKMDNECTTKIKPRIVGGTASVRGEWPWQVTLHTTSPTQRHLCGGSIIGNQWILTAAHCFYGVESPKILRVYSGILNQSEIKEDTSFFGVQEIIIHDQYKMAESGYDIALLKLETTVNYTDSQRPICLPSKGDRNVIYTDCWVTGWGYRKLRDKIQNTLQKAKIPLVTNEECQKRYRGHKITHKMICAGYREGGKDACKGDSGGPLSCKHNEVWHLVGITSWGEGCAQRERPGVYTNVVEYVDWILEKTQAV

For the molecule `Cn1c(COc2ccc3nc(C(=O)N4CCC(n5cccn5)CC4)cc(C(=O)N4CCCCC4)c3c2)nc2ccccc21` [Example 24, (4-(1H-pyrazol-1-yl)piperidin-1-yl)(6-((1-methyl-1H-benzo-[d]imidazol-2-yl)methoxy)-4-(piperidine-1-carbonyl)-quinolin-2-yl)methanone], the EC50 was 0.0289 µM.

`O=C(c1cc(C(=O)N2CCCCC2)c2cc(OCc3cn4ccccc4n3)ccc2n1)N1CCC(n2cccn2)CC1` [Example 25, (4-(1H-pyrazol-1-yl)piperidin-1-yl)(6-(imidazo[1,2-a]-pyridin-2-ylmethoxy)-4-(piperidine-1-carbonyl)quin-olin-2-yl)methanone]: the EC50 was determined as 0.0343 µM.

Consider `O=C(c1cc(C(=O)N2CCCCC2)c2cc(OCc3nc4ccccc4s3)ccc2n1)N1CCC(n2cccn2)CC1` [Example 26, (4-(1H-pyrazol-1-yl)piperidin-1-yl)(6-(benzo[d]thiazol-2-ylmethoxy)-4-(piperidine-1-carbonyl)quinolin-2-yl) methanone], for which the EC50 is 0.0289 µM.

On to `N#Cc1cc(Cl)ccc1COc1ccc2nc(C(=O)N3CCC(C#N)(c4ccccc4)CC3)cc(C(=O)N3CCCCC3)c2c1` [Example 27, 1-(6-((4-chloro-2-cyanobenzyl)oxy)-4-(piperidine-1l-carbonyl)quinoline-2-carbonyl)-4-phenylpiperidine-4-carbonitrile], for which the EC50 was found to be 0.039 µM.

Consider `N#CC1(c2ccccc2)CCN(C(=O)c2cc(C(=O)N3CCCCC3)c3cc(OCc4ccc(F)cc4[N+](=O)[O-])ccc3n2)CC1` [Example 28, 1-(6-((4-fluoro-2-nitro-benzyl)oxy)-4-(piperidine-1-carbonyl)quinoline-2-carbon-yl)-4-phenylpiperidine-4-carbonitrile], for which the EC50 was 0.0389 µM.

For the molecule `N#CC1(c2ccccc2)CCN(C(=O)c2cc(C(=O)N3CCCCC3)c3cc(OCc4cccc([N+](=O)[O-])c4)ccc3n2)CC1` [Example 29, 1-(6-((3-nitrobenzyl)oxy)-4-(piperidine-1-carbonyl)quin-oline-2-carbonyl)-4-phenyl-piperidine-4-carbonitrile], the EC50 is 0.0397 µM.

For the molecule `N#Cc1ccccc1COc1ccc2nc(C(=O)N3CCC(C#N)(c4ccccc4)CC3)cc(C(=O)N3CCCCC3)c2c1` [Example 30, 1-(6-((2-cyanobenzyl)oxy)-4-(piperidine-1-carbonyl)quin-oline-2-carbonyl)-4-phenyl-piperidine-4-carbonitrile], the EC50 turned out to be 0.0301 µM.

Turning to `N#Cc1ccc(COc2ccc3nc(C(=O)N4CCC(C#N)(c5ccccc5)CC4)cc(C(=O)N4CCCCC4)c3c2)cc1` [Example 31, 1-(6-((4-cyanobenzyl)oxy)-4-(piperidine-1-carbonyl)quin-oline-2-carbonyl)-4-phenyl-piperidine-4-carbonitrile], the EC50 turned out to be 0.0249 µM.

Consider `N#Cc1cccc(COc2ccc3nc(C(=O)N4CCC(C#N)(c5ccccc5)CC4)cc(C(=O)N4CCCCC4)c3c2)c1` [Example 32, 1-(6-((3-cyanobenzyl)oxy)-4-(piperidine-1-carbonyl)quin-oline-2-carbonyl)-4-phenyl-piperidine-4-carbonitrile], for which the EC50 amounted to 0.0469 µM.

`N#CC1(c2ccccc2)CCN(C(=O)c2cc(C(=O)N3CCCCC3)c3cc(OCc4cccc(OC(F)F)c4)ccc3n2)CC1` [Example 33, 1-(6-((3-(difluoro-l3-meth-oxy)phenyl)methoxy)-4-(piperidine-1-carbonyl)quin-oline-2-carbonyl)-4-phenyl-piperidine-4-carbonitrile]: the EC50 was 0.0359 µM.

For the molecule `N#CC1(c2ccccc2)CCN(C(=O)c2cc(C(=O)N3CCCCC3)c3cc(OCc4ccc(-c5nnco5)cc4)ccc3n2)CC1` [Example 34, 1-(6-((4-(1,3,4-oxadiazol-2-yl)benzyl)oxy)-4-(piperidine-1-carbonyl)quinoline-2-car-bonyl)-4-phenylpiperidine-4-carbonitrile], the EC50 stood at 0.0414 µM.

With `N#CC1(c2ccccc2)CCN(C(=O)c2cc(C(=O)N3CCCCC3)c3cc(OCc4ccc(OC(F)(F)F)cc4)ccc3n2)CC1` [Example 35, 4-phenyl-1-(4-(piperidine-1-carbonyl)-6-((4-(trifluoro-methoxy)benzyl)oxy)quin-oline-2-carbonyl)piperidine-4-carbonitrile], the EC50 is 0.0377 µM.

As to `N#CC1(c2ccccc2)CCN(C(=O)c2cc(C(=O)N3CCCCC3)c3cc(OCc4ccc(OC(F)F)cc4)ccc3n2)CC1` [Example 36, 1-(6-((4-(difluoro-l3-meth-oxy)phenyl)methoxy)-4-(piperidine-1-carbonyl)quin-oline-2-carbonyl)-4-phenyl-piperidine-4-carbonitrile], the EC50 stood at 0.0291 µM.

Turning to `N#CC1(c2ccccc2)CCN(C(=O)c2cc(C(=O)N3CCCCC3)c3cc(OCc4ccc([N+](=O)[O-])cc4)ccc3n2)CC1` [Example 37, 1-(6-((4-nitrobenzyl)oxy)-4-(piperidine-1-carbonyl)quin-oline-2-carbonyl)-4-phenyl-piperidine-4-carbonitrile], the EC50 was 0.0482 µM.

Take `N#CC1(c2ccccc2)CCN(C(=O)c2cc(C(=O)N3CCCCC3)c3cc(OCc4ccc(C(F)(F)F)cc4)ccc3n2)CC1` [Example 38, 4-phenyl-1-(4-(piperidine-1-carbonyl)-6-((4-(trifluoro-methyl)benzyl)oxy)quin-oline-2-carbonyl)piperidine-4-carbonitrile]: the EC50 turned out to be 0.0495 µM.

With `COc1ccc(COc2ccc3nc(C(=O)N4CCC(C#N)(c5ccccc5)CC4)cc(C(=O)N4CCCCC4)c3c2)cc1F` [Example 39, 1-(6-((3-fluoro-4-methoxy-benzyl)oxy)-4-(piperidine-1-carbonyl)quinoline-2-carbon-yl)-4-phenylpiperidine-4-carbonitrile], the EC50 is 0.0318 µM.

Take `COc1ccc(COc2ccc3nc(C(=O)N4CCC(C#N)(c5ccccc5)CC4)cc(C(=O)N4CCCCC4)c3c2)c(Cl)c1` [Example 40, 1-(6-((2-chloro-4-methoxy-benzyl)oxy)-4-(piperidine-1-carbonyl)quinoline-2-carbon-yl)-4-phenylpiperidine-4-carbonitrile]: the EC50 was determined as 0.0499 µM.

Turning to `COc1cccc(COc2ccc3nc(C(=O)N4CCC(C#N)(c5ccccc5)CC4)cc(C(=O)N4CCCCC4)c3c2)c1` [Example 41, 1-(6-((3-methoxybenzyl)oxy)-4-(piperidine-1-carbonyl)quin-oline-2-carbonyl)-4-phenyl-piperidine-4-carbonitrile], the EC50 amounted to 0.0305 µM.

On to `COc1ccc(COc2ccc3nc(C(=O)N4CCC(C#N)(c5ccccc5)CC4)cc(C(=O)N4CCCCC4)c3c2)c(C(F)(F)F)c1` [Example 42, 1-(6-((4-methoxy-2-(tri-fluoromethyl)benzyl)oxy)-4-(piperidine-1-carbonyl)quin-oline-2-carbonyl)-4-phenyl-piperidine-4-carbonitrile], for which the EC50 was 0.0487 µM.

Turning to `N#CC1(c2ccccc2)CCN(C(=O)c2cc(C(=O)N3CCCCC3)c3cc(OCc4ccc(F)cc4F)ccc3n2)CC1` [Example 43, 1-(6-((2,4-difluorobenzyl)-oxy)-4-(piperidine-1-carbon-yl)quinoline-2-carbonyl)-4-phenylpiperidine-4-carbonitrile], the EC50 was 0.0385 µM.

Take `N#Cc1ccc(F)cc1COc1ccc2nc(C(=O)N3CCC(C#N)(c4ccccc4)CC3)cc(C(=O)N3CCCCC3)c2c1` [Example 44, 1-(6-((2-cyano-5-fluoro-benzyl)oxy)-4-(piperidine-1-carbonyl)quinoline-2-carbon-yl)-4-phenylpiperidine-4-carbonitrile]: the EC50 came to 0.0446 µM.

For `N#Cc1cc(F)ccc1COc1ccc2nc(C(=O)N3CCC(C#N)(c4ccccc4)CC3)cc(C(=O)N3CCCCC3)c2c1` [Example 45, 1-(6-((2-cyano-4-fluoro-benzyl)oxy)-4-(piperidine-1-carbonyl)quinoline-2-carbon-yl)-4-phenylpiperidine-4-carbonitrile], the EC50 came out at 0.0369 µM.

As to `N#CC1(c2ccccc2)CCN(C(=O)c2cc(C(=O)N3CCCCC3)c3cc(OCCCn4cccc4)ccc3n2)CC1` [Example 46, 1-(6-(3-(1H-pyrrol-1-yl)-propoxy)-4-(piperidine-1-car-bonyl)quinoline-2-carbonyl)-4-phenylpiperidine-4-carbonitrile], the EC50 stood at 0.0337 µM.

With `N#CC1(c2ccccc2)CCN(C(=O)c2cc(C(=O)N3CCCCC3)c3cc(OCc4cn5ccccc5n4)ccc3n2)CC1` [Example 47, 1-(6-(imidazo[1,2-a]pyridin-2-ylmethoxy)-4-(piperidine-1-carbonyl)quinoline-2-carbonyl)-4-phenylpiperi-dine-4-carbonitrile], the EC50 came to 0.0138 µM.

With `N#CC1(c2ccccc2)CCN(C(=O)c2cc(C(=O)N3CCCCC3)c3cc(OCc4ccccn4)ccc3n2)CC1` [Example 48, 4-phenyl-1-(4-(piperidine-1-carbonyl)-6-(pyridin-2-yl-methoxy)quinoline-2-carbon-yl)piperidine-4-carbonitrile], the EC50 is 0.0449 µM.
